Test results published in US11485713B2, “Androgen receptor modulators and methods for their use” (ESSA Pharma, Inc., priority 2018, dated 2022).

What was measured:
[1] = test system: LNCaP ARE-Luc; assay: Luciferase assay in LNCaP cell lysates (LNCaP ARE-Luc); format: cell-based; settings: Homo sapiens, Firefly Luciferase Assay System, read-out: LNCaP ARE-Luc % inhibition IC50 Ranges
Description: Lysates were thawed on ice then collected into V-bottom 96-well tissue culture plates. Lysates were centrifuged at 4° C. for 5 minutes at 4000 rpm. To measure luminescence of LNCaP cell lysates the Firefly Luciferase Assay System (Promega) was employed, according to manufacturer's protocol. Relative luminescence units (RLU) in cell lysates were detected for 10 seconds using Promega GoMax-Multi Detection Luminometer (Promega).
Statistical analyses were performed using GraphPad Prism (Version 6.01 for Windows; La Jolla, Calif., USA). Comparisons between treatment and control groups were compared using Two-Way ANOVA with post-hoc Dunnett's and Tukey's tests. Differences were considered statistically significant at P values less than 0.05. Densitometric quantification of relative AR levels was determined by Image.

[2] = Microsomal stability assay, HLM; format: in vitro ADME; settings: human, pH 7.4, 1 μM test compound, 0.5 mg/mL liver microsomes protein, 37° C., 0-60 min, read-out: HLM +/− NADPH: Clint (μL/min/mg protein)
Text: Microsomal Stability Assay: Microsomal stability assay is a widely used in vitro model to characterize the metabolic conversion by phase I enzymes, such as cytochrome P450 (CYP) enzymes. Since metabolism is known to be highly variable in different species, microsomal stability assay is commonly run in multiple species. Metabolic stability of testing compound can be evaluated using human, rat, mouse, or other animal liver or intestine microsomes to predict intrinsic clearance.
The assay was carried out in 96-well microtiter plates at 37° C. Reaction mixtures (25 μL) contained a final concentration of 1 μM test compound, 0.5 mg/mL liver microsomes protein, and 1 mM NADPH and/or 1 mM UDPGA (with alamethicin) in 100 mM potassium phosphate, pH 7.4 buffer with 3 mM MgCl2. The incubation was done with N=1, but duplicate incubation at each time point can be prepared if necessary. At each of the time points (for example, 0, 15, 30, and 60 minutes), 150 μL of quench solution (100% acetonitrile with 0.1% formic acid) with internal standard was transferred to each well. Besides the zero minute controls, mixtures containing the same components except the NADPH can also be prepared as the negative control. Verapamil was included as a positive control to verify assay performance. Plates were sealed, vortexed, and centrifuged at 4° C. for 15 minutes at 4000 rpm. The supernatant is transferred to fresh plates for LC/MS/MS analysis.
Summarized conditions: [Compound]=1 μM, [LM]=0.5 mg/mL, [NADPH]=1 mM and/or [UDPGA]=1 mM, Buffer=100 mM Potassium Phosphate, pH 7.4 with 3 mM MgCl2, Time=0, 15, 30, and 60 min, and Temperature=37° C.
All samples were analyzed on LC/MS/MS using an AB Sciex API 4000 instrument, coupled to a Shimadzu LC-20AD LC Pump system. Analytical samples were separated using a Waters Atlantis T3 dC18 reverse phase HPLC column (20 mm×2.1 mm) at a flow rate of 0.5 mL/min. The mobile phase consisted of 0.1% formic acid in water (solvent A) and 0.1% formic acid in 100% acetonitrile (solvent B).
The extent of metabolism is calculated as the disappearance of the test compound, compared to the 0-min time incubation. Initial rates are calculated for the compound concentration and used to determine half-life (t½) values and subsequently, the intrinsic clearance (Clint). Clint=(0.693)(1/t½ (min))(g of liver/kg of body weight)(mL incubation/mg of microsomal protein)(45 mg of microsomal protein/g of liver weight)

| Compound | IC50 [1] [nM] | microsomal CLint at 1 μM [2] [µL/min/mg] |
| --- | --- | --- |
| CC(=O)COc1ccc(C(C)(C)c2cc(Cl)c(OCCCCl)c(Cl)c2)cc1 [Compound A74, 1-(4-(2-(3,5-dichloro-4-(3-chloropropoxy)phenyl)propan-2-yl)phenoxy)propan-2-one] | ≥ 250 |  |
| CC(C)(c1ccc(OCCCCl)cc1)c1ccc(OCC(=O)CNS(C)(=O)=O)c(C#N)c1 [Compound A15] | ≥ 250 | ≥ 48 |
| COCC(=O)C(F)(F)Oc1ccc(C(C)(C)c2cc(Cl)c(OCCCCl)c(Cl)c2)cc1 [Compound A100, 1-(4-(2-(3,5-dichloro-4-(3-chloropropoxy)phenyl)propan-2-yl)phenoxy)-1,1-difluoro-3-methoxypropan-2-one] | ≥ 250 |  |
| CC(C)(c1ccc(OC(F)(F)C(=O)CS(C)(=O)=O)cc1)c1cc(Cl)c(OCCCCl)c(Cl)c1 [Compound A102] | ≥ 250 |  |
| CS(=O)(=O)NCC(=O)COc1ccc(-c2cc(Cl)c(OCCCCl)c(Cl)c2)cc1 [Compound A73, N-(3-((3′,5′-dichloro-4′-(3-chloropropoxy)-[1,1′-biphenyl]-4-yl)oxy)-2-oxopropyl)methanesulfonamide] | ≥ 250 | 12 to 48 |
| CC(C)(c1ccc(OCC(=O)NCCNS(C)(=O)=O)cc1)c1cc(Cl)c(OCCCCl)c(Cl)c1 [Compound A62] | ≥ 250 | 12 to 48 |
| CC(C)(c1ccc(OCC(=O)C(F)(F)F)cc1)c1cc(Cl)c(OCCCCl)c(Cl)c1 [Compound A91, 3-(4-(2-(3,5-dichloro-4-(3-chloropropoxy)phenyl)propan-2-yl)phenoxy)-1,1,1-trifluoropropan-2-one] | ≥ 250 | < 12 |
| CC(C)(c1ccc(OCC(=O)N2CCN(S(C)(=O)=O)CC2)cc1)c1cc(Cl)c(OCCCCl)c(Cl)c1 [Compound A44] | ≥ 250 | 12 to 48 |
| CS(=O)(=O)NCC(=O)CCOc1ccc(-c2cc(Cl)c(OCCCCl)c(Cl)c2)cc1 [Compound A76] | ≥ 250 | 12 to 48 |
| CC(C)(c1ccc(C(=O)CCCNS(C)(=O)=O)cc1)c1cc(Cl)c(OCCCCl)c(Cl)c1 [Compound A84] | ≥ 250 | 12 to 48 |
| CC(C)(c1ccc(NC(=O)CCNS(C)(=O)=O)cc1)c1cc(Cl)c(OCCCCl)c(Cl)c1 [Compound A45] | ≥ 250 | < 12 |
| CC(=O)N(CC(=O)COc1ccc(C(C)(C)c2cc(Cl)c(OCCCCl)c(Cl)c2)cc1)S(C)(=O)=O [Compound A104] | ≥ 250 |  |
| CC(=O)C(=O)Nc1ccc(C(C)(C)c2cc(Cl)c(OCCCCl)c(Cl)c2)cc1 [Compound A85] | ≥ 250 | ≥ 48 |
| CS(=O)(=O)NCC(=O)COc1cccc(Cc2ccc(Cl)c(OCCCCl)c2Cl)c1 [Compound A24] | ≥ 250 | ≥ 48 |
| CC(C)(c1ccc(OCC(=O)CS(C)(=O)=O)cc1)c1cc(Cl)c(OC[C@H](O)CCl)c(Cl)c1 [A54(S), (S)-1-(4-(2-(3,5-dichloro-4-(3-chloro-2-hydroxypropoxy)phenyl)propan-2-yl)phenoxy)-3-(methylsulfonyl)propan-2-one] | ≥ 250 |  |
| CC(O)(CCl)COc1c(Cl)cc(C(C)(C)c2ccc(OCC(=O)CS(C)(=O)=O)cc2)cc1Cl (centres unmarked) [Compound A53, 1-(4-(2-(3,5-dichloro-4-(3-chloro-2-hydroxy-2-methypropoxy)phenyl)propan-2-yl)phenoxy)-3-(methylsulfonyl)propan-2-one] | ≥ 250 |  |
| CCOC(=O)CC(=O)C(F)(F)Oc1ccc(C(C)(C)c2cc(Cl)c(OCCCCl)c(Cl)c2)cc1 [Compound A101] | ≥ 250 |  |

Results, then the compound that gave them:

| IC50 [1] [nM] | microsomal CLint at 1 μM [2] [µL/min/mg] | Compound |
| --- | --- | --- |
| ≥ 250 |  | CC(=O)C(=O)Nc1ccc(C(C)(C)c2cc(Cl)c(OCC(C)(O)CCl)c(Cl)c2)cc1 (centres unmarked) [Compound A96] |
| < 100 | ≥ 48 | CC(CCl)COc1c(Cl)cc(C(C)(C)c2ccc(OCC(=O)CNS(C)(=O)=O)cc2)cc1Cl (centres unmarked) [Compound A32] |
| ≥ 250 | ≥ 48 | COc1cc(OCC(=O)CNS(C)(=O)=O)ccc1C(C)(C)c1ccc(OCCCCl)cc1 [Compound A12] |
| ≥ 250 | ≥ 48 | CC(=O)N(c1ccc(OCC(=O)CNS(C)(=O)=O)cc1)c1cc(Cl)c(OCCCCl)c(Cl)c1 [Compound A71, N-(3,5-dichloro-4-(3-chloropropoxy)phenyl)-N-(4-(3-(methylsulfonamido)-2-oxopropoxy)phenyl)acetamide] |
| ≥ 250 | ≥ 48 | CN(C)C(=O)NCc1ccc(C(C)(C)c2cc(Cl)c(OCCCCl)c(Cl)c2)cc1 [Compound A47] |
| 100 to 250 | ≥ 48 | CN(CCCCl)c1c(Cl)cc(C(C)(C)c2ccc(OCC(=O)CNS(C)(=O)=O)cc2)cc1Cl [Compound A36] |
| ≥ 250 | ≥ 48 | CN(CC(=O)COc1ccc(C(C)(C)c2cc(Cl)c(OCCCCl)c(Cl)c2)cc1)S(C)(=O)=O [Compound A69] |
| < 100 | ≥ 48 | CS(=O)(=O)NCC(=O)COc1ccc(C2(c3cc(Cl)c(OCCCCl)c(Cl)c3)COC2)cc1 [Compound A43, N-(3-(4-(3-(3,5-dichloro-4-(3-chloropropoxy)phenyl)oxetan-3-yl)phenoxy)-2-oxopropyl)methanesulfonamide] |
| ≥ 250 |  | CC(C)(c1ccc(OC(F)(F)C(=O)C(N)=O)cc1)c1cc(Cl)c(OCCCCl)c(Cl)c1 [Compound A92] |
| 100 to 250 |  | CC(C)(c1ccc(OC(F)(F)C(=O)CNS(C)(=O)=O)cc1)c1cc(Cl)c(OCCCCl)c(Cl)c1 [Compound A99, N-(3-(4-(2-(3,5-dichloro-4-(3-chloropropoxy)phenyl)propan-2-yl)phenoxy)-3,3-difluoro-2-oxopropyl)methanesulfonamide] |
| ≥ 250 | ≥ 48 | CC(C)(c1ccc(OCC(=O)CNS(C)(=O)=O)cc1)c1cc(Cl)c(OCc2ccc(Cl)cc2)c(Cl)c1 [Compound A38] |
| ≥ 250 | ≥ 48 | CC(C)(c1ccc(OCC(=O)CNS(C)(=O)=O)cc1)c1ccc(OCCCCl)cc1Cl [Compound A6] |
| 100 to 250 | ≥ 48 | CC(C)(c1ccc(OCC(=O)CNS(C)(=O)=O)c(F)c1)c1cc(Cl)c(OCCCCl)c(Cl)c1 [Compound A48] |
| < 100 | ≥ 48 | CC(C)(c1ccc(OCC(=O)CNS(C)(=O)=O)cc1)c1cc(Cl)c(OCCCl)c(Cl)c1 [Compound A33, N-(3-(4-(2-(3,5-dichloro-4-(2-chloroethoxy)phenyl)propan-2-yl)phenoxy)-2-oxopropyl)methanesulfonamide] |
| < 100 | ≥ 48 | CC(C)(c1ccc(OCC(=O)CNS(C)(=O)=O)cc1)c1ccc(OCCCCl)c(C#N)c1 [Compound A7] |
| 100 to 250 | ≥ 48 | CS(=O)(=O)NCC(=O)COc1ccc(CCc2cc(Cl)c(OCC(O)CCl)c(Cl)c2)cc1 (centres unmarked) [Compound A75, N-(3-(4-(3,5-dichloro-4-(3-chloro-2-hydroxypropoxy)phenethyl)phenoxy)-2-oxopropyl)methanesulfonamide] |
| 100 to 250 | ≥ 48 | CC(C)(c1ccc(OCC(=O)CNS(C)(=O)=O)cc1)c1cc(Cl)c(NCCCCl)c(Cl)c1 [Compound A35] |
| < 100 | ≥ 48 | CC(O)(CCl)COc1c(Cl)cc(C(C)(C)c2ccc(OCC(=O)CNS(C)(=O)=O)cc2)cc1Cl (centres unmarked) [Compound A52, N-(3-(4-(2-(3,5-dichloro-4-(3-chloro-2-hydroxy-2-methylpropoxy)phenyl)propan-2-yl)phenoxy)-2-oxopropyl)methanesulfonamide] |
| < 100 |  | CC(=O)Oc1ccc(C(C)(C)c2cc(Cl)c(OCCCCl)c(Cl)c2)cc1 [Compound A103] |
| 100 to 250 |  | COC(=O)C(OC)C(O)(O)C(F)(F)Oc1ccc(C(C)(C)c2cc(Cl)c(OCCCCl)c(Cl)c2)cc1 (centres unmarked) [Compound A97] |
